Test results taken from patent US9556165B2 (priority 2012, dated 2017).
≈ marks a conversion by molar mass, not a printed value.

Experiments:
Assay in all cases: MIC determination, broth microdilution (CLSI)
Type in all cases: cell-based
A. baumannii ATCC15308 = conditions: for MIC: Acinetobacter baumannii, ATCC15308, strain 9
[1] = system: P. aeruginosa 2297 (AmpC wt); conditions: for MIC: Pseudomonas aeruginosa, strain 7
[2] = system: P. aeruginosa 2297-con (AmpC derepressed); conditions: for MIC: Pseudomonas aeruginosa, read-out: strain 8 MIC, strain 8
E. coli J62 = conditions: for MIC: Escherichia coli, J62, strain 17, read-out: strain 17 MIC
E. cloacae 34654 = conditions: for MIC: Enterobacter cloacae, 34654, strain 3
M. morganii 126/3048 = conditions: for MIC: Morganella morganii, 126/3048, strain 5
K. pneumoniae 60 = conditions: for MIC: Klebsiella pneumoniae, 60, strain 2
E. coli ATCC25922 = conditions: for MIC: Escherichia coli, ATCC25922, strain 1
strain 20 = system: strain 20
E. coli J62-TEM-3 = conditions: for MIC: Escherichia coli, J62TEM3, read-out: strain 18 MIC, strain 18
M. catarrhalis ICB489 = conditions: for MIC: Moraxella catarrhalis, ICB489, strain 12
strain 19 = system: strain 19
strain 21 = system: strain 21
P. aeruginosa PAO1 = conditions: for MIC: Pseudomonas aeruginosa, PAO1, strain 6
C. freundii K21/3034 = conditions: for MIC: Citrobacter freundii, K21/3034, strain 4
H. influenzae ATCC 49247 = conditions: Haemophilus influenzae, ATCC49247, strain 13; read-out: strain 13 MIC
S. pneumoniae 113 = conditions: Streptococcus pneumoniae, 113, strain 14; read-out: strain 14 MIC
S. aureus 133 = conditions: Staphylococcus aureus, 133, strain 11; read-out: strain 11 MIC
B. fragilis 6688 = conditions: Bacteroides fragilis, 6688, strain 15; read-out: strain 15 MIC

Row | Compound | MIC (A. baumannii ATCC15308) | MIC [1] | MIC [2] | MIC (E. coli J62) | MIC (H. influenzae ATCC 49247) | MIC (E. cloacae 34654) | MIC (S. pneumoniae 113) | MIC (M. morganii 126/3048) | MIC (K. pneumoniae 60) | MIC (E. coli ATCC25922) | MIC (strain 20) | MIC (E. coli J62-TEM-3) | MIC (S. aureus 133) | MIC (M. catarrhalis ICB489) | MIC (strain 19) | MIC (strain 21) | MIC (B. fragilis 6688) | MIC (P. aeruginosa PAO1) | MIC (C. freundii K21/3034) | other results
1 | C[C@H]1[C@H](NC(=O)/C(=N\OC(COc2ccc(C(=N)N)cc2)C(=O)O)c2csc(N)n2)C(=O)N1S(=O)(=O)O (mixture of isomers) [Example 26B, (2S and 2R)-2-({[(1Z)-1-(2-Amino-1,3-thiazol-4-yl)-2-{[(2S,3S)-2-methyl-4-oxo-1-sulfoazetidin-3-yl]amino}-2-oxoethylidene]amino}oxy)-3-(4-carbamidinoyl-phenoxy)propanoic acid] |  |  |  |  |  |  |  |  |  |  |  |  |  |  |  |  |  |  |  | strain 9 MIC (A. baumannii ATCC15308; strain 9): 16 µg/mL; strain 7 MIC [1]: 8 µg/mL; strain 8 MIC ([2]; strain 8): 32 µg/mL; strain 17 MIC (E. coli J62; strain 17): 2 µg/mL; strain 3 MIC (E. cloacae 34654; strain 3): 1 µg/mL; strain 5 MIC (M. morganii 126/3048; strain 5): 0.5 µg/mL; strain 2 MIC (K. pneumoniae 60; strain 2): 0.5 µg/mL; strain 1 MIC (E. coli ATCC25922; strain 1): 2 µg/mL; strain 20 MIC (strain 20): 2 µg/mL; strain 18 MIC (E. coli J62-TEM-3; strain 18): 32 µg/mL; strain 12 MIC (M. catarrhalis ICB489; strain 12): 2 µg/mL; strain 19 MIC (strain 19): 1 µg/mL; strain 21 MIC (strain 21): 2 µg/mL; strain 6 MIC (P. aeruginosa PAO1; strain 6): 4 µg/mL; strain 4 MIC (C. freundii K21/3034; strain 4): 2 µg/mL
2 | C[C@H]1[C@H](NC(=O)/C(=N\OCCOc2ccc(C(=N)N)nc2)c2csc(N)n2)C(=O)N1S(=O)(=O)O [Example 3, (2S,3S)-3-{[(2Z)-2-(2-Amino-1,3-thiazol-4-yl)-2-({2-[(6-carbamimidoylpyridin-3-yl)oxy]ethoxy}imino)acetyl]amino}-2-methyl-4-oxoazetidine-1-sulfonic acid] | 1 µg/mL (≈ 1.95 µM) | 4 µg/mL (≈ 7.8 µM) | 16 µg/mL (≈ 31.2 µM) | 0.25 µg/mL (≈ 0.488 µM) | 0.5 µg/mL (≈ 0.976 µM) | 0.125 µg/mL (≈ 0.244 µM) | 8 µg/mL (≈ 15.6 µM) | 0.125 µg/mL (≈ 0.244 µM) | ≤ 0.063 µg/mL | 0.125 µg/mL (≈ 0.244 µM) | 0.125 µg/mL (≈ 0.244 µM) | 16 µg/mL (≈ 31.2 µM) | ≤ 0.063 µg/mL | 0.125 µg/mL (≈ 0.244 µM) | 0.125 µg/mL (≈ 0.244 µM) | 0.25 µg/mL (≈ 0.488 µM) | 8 µg/mL (≈ 15.6 µM) | 2 µg/mL (≈ 3.9 µM) | ≤ 0.063 µg/mL | 
3 | C[C@H]1[C@H](NC(=O)/C(=N\OCCOc2ccc(C(=N)N)cn2)c2csc(N)n2)C(=O)N1S(=O)(=O)O [Example 5, (2S,3S)-3-{[(2Z)-2-(2-Amino-1,3-thiazol-4-yl)-2-({2-[(5-carbamimidoylpyridin-2-yl)oxy]-ethoxy}imino)acetyl]amino}-2-methyl-4-oxoazetidine-1-sulfonic acid] | 1 µg/mL (≈ 1.95 µM) | 4 µg/mL (≈ 7.8 µM) | 32 µg/mL (≈ 62.4 µM) | 0.5 µg/mL (≈ 0.976 µM) | 0.5 µg/mL (≈ 0.976 µM) | 0.125 µg/mL (≈ 0.244 µM) | 4 µg/mL (≈ 7.8 µM) | 0.125 µg/mL (≈ 0.244 µM) | ≤ 0.063 µg/mL | 0.25 µg/mL (≈ 0.488 µM) | 0.25 µg/mL (≈ 0.488 µM) | 16 µg/mL (≈ 31.2 µM) | 0.125 µg/mL (≈ 0.244 µM) | 0.25 µg/mL (≈ 0.488 µM) | 0.25 µg/mL (≈ 0.488 µM) | 0.25 µg/mL (≈ 0.488 µM) | 8 µg/mL (≈ 15.6 µM) | 4 µg/mL (≈ 7.8 µM) | 0.25 µg/mL (≈ 0.488 µM) | 
4 | C[C@H]1[C@H](NC(=O)/C(=N\OCCNc2ccc(C(=N)N)cc2)c2csc(N)n2)C(=O)N1S(=O)(=O)O [Example 8, (2S,3S)-3-{[(2Z)-2-(2-Amino-1,3-thiazol-4-yl)-2-({2-[(4-carbamimidoylphenyl)amino]ethoxy}imino)acetyl]amino}-2-methyl-4-oxoazetidine-1-sulfonic acid] | 4 µg/mL (≈ 7.83 µM) | 32 µg/mL (≈ 62.7 µM) | 32 µg/mL (≈ 62.7 µM) | 4 µg/mL (≈ 7.83 µM) | 1 µg/mL (≈ 1.96 µM) | 2 µg/mL (≈ 3.92 µM) | 8 µg/mL (≈ 15.7 µM) | 0.25 µg/mL (≈ 0.49 µM) | 0.5 µg/mL (≈ 0.979 µM) | 1 µg/mL (≈ 1.96 µM) | 4 µg/mL (≈ 7.83 µM) |  | 0.25 µg/mL (≈ 0.49 µM) | 0.5 µg/mL (≈ 0.979 µM) | 2 µg/mL (≈ 3.92 µM) | 4 µg/mL (≈ 7.83 µM) | 16 µg/mL (≈ 31.3 µM) | 8 µg/mL (≈ 15.7 µM) | 0.5 µg/mL (≈ 0.979 µM) | 
5 | Cc1cc(OCCO/N=C(\C(=O)N[C@@H]2C(=O)N(S(=O)(=O)O)[C@H]2C)c2csc(N)n2)ccc1C(=N)N [Example 14, (2S,3S)-3-{[(2Z)-2-(2-Amino-1,3-thiazol-4-yl)-2-{[2-(4-carbamimidoyl-3-methylphenoxy)ethoxy]imino}acetyl]amino}-2-methyl-4-oxoazetidine-1-sulfonic acid] | 2 µg/mL (≈ 3.81 µM) | 8 µg/mL (≈ 15.2 µM) | 32 µg/mL (≈ 60.9 µM) | 1 µg/mL (≈ 1.9 µM) | 0.5 µg/mL (≈ 0.951 µM) | 0.5 µg/mL (≈ 0.951 µM) | 8 µg/mL (≈ 15.2 µM) | 0.5 µg/mL (≈ 0.951 µM) | 1 µg/mL (≈ 1.9 µM) | 0.5 µg/mL (≈ 0.951 µM) | 0.5 µg/mL (≈ 0.951 µM) | 32 µg/mL (≈ 60.9 µM) | ≤ 0.063 µg/mL | 0.25 µg/mL (≈ 0.476 µM) | 0.5 µg/mL (≈ 0.951 µM) | 0.5 µg/mL (≈ 0.951 µM) | 16 µg/mL (≈ 30.4 µM) | 4 µg/mL (≈ 7.61 µM) | 0.25 µg/mL (≈ 0.476 µM) | 
